# Assay results reported in patent US20250179024A1, “AMYLOID AND ASSOCIATED PATHOLOGY MODULATORS AND METHODS THEREOF” (Jawaharlal Nehru Centre for Advanced Scientific Research, priority 2022, published 2025).
# Tests used:
# SH-SY5Y cells = assay: Apoptosis assay by nuclear staining and morphology; assay type: cell-based; settings: Aβ 10 μM, compound 20 µM, 24 h
# Description: The apoptosis induced by Aβ and rescue by NMIs (M3) was assessed through nuclear staining and morphology analysis. Apoptosis induces DNA damage and morphological change in the nucleus. Based on the nuclear features the extent of apoptosis was assessed as percentage apoptotic cells. SH-SY5Y cells were cultured and treated with Aβ (10 μM) and with NMIs (M3) (20 μM) to quantify the apoptosis and rescue by NMIs (M3). After 24 h the cells were washed with PBS and fixed with 4% paraformaldehyde and then with PBS for 5 min thrice and the nucleus was stained with DAPI (1 μM) for 10 min, washed thrice with PBS and imaged using fluorescence microscope to visualize the nuclear morphology. […] Total of more than 300 cells were counted to calculated the percentage of apoptosis.
# Modulation of apoptosis by M3 was quantified by apoptosis assay through nuclear staining and morphological analysis. Apoptotic signals induced nuclear DNA damage show abnormal nuclear features, which has been used to evaluate and quantify the extent of apoptosis. Neuronal cells treated with Aβ (10 μM) alone and with […] for 24 h were stained for the nucleus and analysed for apoptotic morphological features.
# C6 microglial cells = assay: Bio-AFM study of microglial activation; assay type: cell-based; settings: Aβ 5 μM, compound 10 μM
# Description: Microglia activation and its alleviation was studied by Bio-AFM technique combining the indirect immunofluorescence by confocal microscopy and cellular mechanical properties characterization by AFM. C6 microglia was used as model cells and Aβ as pathological stimuli for the study. C6 cells were cultured in glass bottom confocal dishes to attain 70% confluence. The cells were primed to activation by using 500 ng/mL of LPS in low serum media (2.5% FBS). Then microglial cells were treated with 5 μM Aβ42 alone and with NMIs (M3) for 18 h. Then the cells were fixed and probed for Iba1 marker by indirect immunofluorescence, counter stained with Phalloidin rhodamine (200 nM) for actin labeling to visualize the actin distribution and DAPI (1 μM) for labeling the nucleus. The samples were washed thrice using dPBS and subjected to Bio-AFM imaging.
# The Bio-AFM studies were performed in Bioscope Resolve AFM integrated with Olympus Fluoview-3000 Confocal laser scanning microscope (Bruker). The original confocal stage was removed and replaced with the Bruker Bio-AFM stage. For the confocal images aspect ratio was fixed to 4:3 with channel size of 640×480 and 3-point calibration was done to obtain proper overlay and pixel scaling was optimized by setting 0.375 μ/pixel. Region of interest was selected in the confocal using 60× oil immersion objective (Olympus plan Apo N) and on selected region AFM probe was landed using MIROVIEW window. Peak Force Quantitative Nanomechanical Mapping (PF-QNM) in Fluid mode was used for imaging the cells wherein this mode works based on Peakforce tapping principle. From this mode, height, log DMT and adhesion force of the samples was recorded. The log DMT was calculated using Derjaguin, Muller, Toropov (DMT) model using the formula given below. Studies were performed using MLCT BIO-F probe made up of non-conductive silicon nitride, coated with reflective Au with spring constant of 0.60 N/m and tip radius of 20 nm. Images were recorded with scanning speed of 0.5 Hz with 512 samples per line. The confocal images were recorded in DAPI, Alex488 and rhodamine channels. AFM data was analyzed using NanoScope analysis software (1.9 version) and confocal images were analyzed using Image J. Ftip=4/3E*√Rd3+Fadh, where Ftip=Force on tip, Fadh=Adhesion force, R=Tip radius and d=Tip sample separation.
# C6 microglial cells were used as model and Aβ as stimuli for microglial activation that mimics AD conditions. The C6 cells were primed with LPS (500 ng/mL) for 4 h followed by treatment with Aβ (5 μM) alone and with M3 (10 μM) for 18 h. The cells were stained for Iba1, actin (phalloidin-rhodamine) and nucleus (DAPI), and the samples were subjected to confocal and AFM imaging using integrated Bio-AFM instrument.
smiles,measurement,setting,value
"O=C1c2cccc3c(N(Cc4ccccn4)Cc4ccccn4)ccc(c23)C(=O)N1CCc1ccc(O)c(O)c1 [M3, 6-(bis(pyridin-2-ylmethyl)amino)-2-(3,4-dihydroxyphenethyl)-1H-benzo[de]isoquinoline-1,3(2H)-dione]",nuclear morphology,SH-SY5Y cells; DAPI,normal nuclear structures
same,apoptosis of neuronal cells,"SH-SY5Y cells; Aβ alone ~35%, control ~8.5%",22.5%
same,log DMT modulus (cellular stiffness),"C6 microglial cells; Aβ treated ~2.06±0.20 Pa, control ~1.38±0.19 Pa",~1.32±0.15
same,height of microglial cells,"C6 microglial cells; activated ~5.13±0.29, control ~2.03±0.18",~3.03 µm
same,adhesive force,"C6 microglial cells; activated ~5.30±0.24, control 3.21±0.23",~3.57±0.25 nN
same,Iba1 level compared to Aβ treated cells,"C6 microglial cells; LPS 500 ng/mL, 18 h",reduced significantly
same,Iba1 localisation with actin,"C6 microglial cells; LPS 500 ng/mL, 18 h",reduced the Iba1 localisation with actin
same,actin redistribution to the periphery of Aβ treated microglial cells,"C6 microglial cells; LPS 500 ng/mL, 18 h",reduced
